The results in this text go back to paper PMC6796961, “Bioinformatic and biochemical analysis of the key binding sites of the pheromone binding protein of Cyrtotrachelus buqueti Guerin-Meneville (Coleoptera: Curculionidea)” (PeerJ, 2019).

Holding throughout (format): binding
Experiment [1] addresses T1, CbuqPBP1 (Cyrtotrachelus buqueti, UniProt A0A1B3IIF7, H53A).
T1 construct: E. coli BL21(DE3), pET-28a(+); His-tag cut with enterokinase; about 400 bp insert, 16 kDa
T1 sequence (A0A1B3IIF7 17-143 H53A): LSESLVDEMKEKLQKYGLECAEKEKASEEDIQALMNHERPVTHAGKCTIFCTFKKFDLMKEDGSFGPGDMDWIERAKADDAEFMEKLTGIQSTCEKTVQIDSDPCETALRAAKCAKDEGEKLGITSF
The experiment can be described thus: fluorescence titration, Scatchard plot.

In experiment [2] the target is T2, CbuqPBP1 (Cyrtotrachelus buqueti, UniProt A0A1B3IIF7).
T2 construct: E. coli BL21(DE3), pET-28a(+); His-tag cut with enterokinase; about 400 bp insert, 16 kDa
T2 sequence (A0A1B3IIF7 17-143): T1 sequence (A0A1B3IIF7 17-143 H53A)
The experiment can be described thus: fluorescence titration, Scatchard plot.

Experiment [3] has as its target T3, CbuqPBP1 (Cyrtotrachelus buqueti, UniProt A0A1B3IIF7, F69A).
T3 construct: E. coli BL21(DE3), pET-28a(+); His-tag cut with enterokinase; about 400 bp insert, 16 kDa
T3 sequence (A0A1B3IIF7 17-143 F69A): T1 sequence (A0A1B3IIF7 17-143 H53A)
The experiment can be described thus: fluorescence titration, Scatchard plot.

The target of experiment [4] is T2, CbuqPBP1. Briefly: competitive displacement of 1-NPN fluorescence. The conditions noted are these: for IC50: read-out: IC50 (μM) / PBP1; for Ki: read-out: Ki (μM) / PBP1. The source says: (§1) competitive displacement of 1-NPN fluorescence on CbuqPBP1
The target of experiment [5] is T3, CbuqPBP1. The experiment can be described thus: competitive displacement of 1-NPN fluorescence.
Text: as §1

One may read the Kd as a measure of binding affinity in units of concentration. Read a low Kd as higher affinity.

As to `c1ccc(Nc2cccc3ccccc23)cc1` [1-NPN], the Kd worked out at 3.35 µM on CbuqPBP1 [1], 2.73 µM at CbuqPBP1 [2] and 2.26 µM on CbuqPBP1 [3].

Take `c1ccc2scnc2c1` [benzothiazole]: at CbuqPBP1 [4], the IC50 amounted to 13.4 µM and the Ki is 9.82 µM. Further, on CbuqPBP1 [5], the IC50 was 10.5 µM and the Ki was 7.3 µM.

On to `CCCCOC(=O)c1ccccc1C(=O)OCCCC` [dibutyl phthalate], for which, at CbuqPBP1 [5], the IC50 amounted to 20 µM and the Ki was 13.9 µM.

As for `C[C@@H]1CC[C@H]2C(C)(C)[C@H]3C[C@@]12CC[C@@]3(C)O` [cedrol], on CbuqPBP1 [4], the IC50 amounted to 30 µM and the Ki was 21.9 µM.
